Laboratory results as given in patent publication EP0387527A1, “Process for the fermentative production of L-lysine” (Degussa Aktiengesellschaft, priority 1989, dated 1990).
Like-named read-outs stand apart in the source and are kept apart here.

Columns and labels:
Assay type in all cases: biochemical
[1] = biological target: Aspartat-Kinase (AK), C. glutamicum ATCC13032 (pCS24) (Corynebacterium glutamicum, UniProt P26512); assay: Aspartate kinase test, residual activity with effector combinations
Procedure: (§1) Die Stämme ATCC13032 und DM58-1 wurden unter direkt vergleichbaren Bedingungen in Standard I Bouillon (Merck Art. Nr. 7882) mit zusätzlichen 4 g/l Glucose und 1 mM MgCl₂ bei 30 °C und 150 rpm bis zum Erreichen der früh stationären Phase kultiviert und durch Zentrifugation vom Kulturmedium getrennt. Man wäscht 3 Mal mit 100 mM Tris/HCl (pH 7,5); 1 mM DTT und suspendiert die Feuchtzellmasse in einem Volumenteil des gleiche Puffers.
(§2) Die so suspendierten Zellen wurden in einer Kugelmühle (B. Braun Melsungen - MSK-Homogenisator, IMA-Disintegrator S) durch Verrühren mit einer geeigneten Menge an Glasperlen aufgeschlossen. Das Zellhomogenat wurde mittels Glasfilternutsche von den Glasperlen getrennt und 30 Minuten bei 30000 x g klarzentrifugiert.
(§3) Nach 15stündiger Dialyse in Enzym-stabilisierendem Puffer wurden die Enzymaktivitäten in folgenden Testgemischen bestimmt:
(§4) Aspartat-Kinase Test: 100 mM Tris/HCl (pH 7,5), 1 mM DTT, 400 mM (NH₄)₂SO₄, 20 mM MgCl₂, 400 mM NH₂OH·HCl, 300 mM L-Aspartat, 40 mM ATP und verschiedene Mengen Enzympräparation. Durch Zugabe von 750 µl einer Lösung aus 10 % Fe Cl₃ 6H₂O; 3,3 % TCA; 0,7 N HCl zu 500 µl des Enzymtestgemisches wird die Enzymreaktion nach 30 minütiger Inkubation bei 37 °C gestoppt. Aus der mittels Eichkurvenverfahren photometrisch (ΔE540 nm) bestimmten Aspartyl-beta-Hydroxamat Konzentration wird die in µMol/mg·min (U/mg) angegebenen Enzymaktivität kalkuliert. Die zugehörigen Proteinkonzentrationen wurden nach der Methode von Lowry et al. (Lowry et al. J. Biol. Chem. 193, 265 (1951)) oder Bradford (Bradford Anal. Biochem. 72, 248 (1976)) durchgeführt. Der Aspartyl-β-semialdehyd Dehydrogenase Test enthält 120 mM Diethanolamin (pH 9,0); 40 mM Na AsO₄; 1 mM NADP⁺; 5 mM L-Threonin; 1,3 mM Aspartyl-beta-semialdehyd und verschiedene Mengen Enzympräparation in einem Gesamtvolumen von 1 ml. Die in µMol/mg·min (U/mg) angegebene Aktivitat wird über die photometrisch […] bestimmte NADPH Synthesegeschwindigkeit berechnet.
(§5) Aspartat-Kinase-Aktivität wurde in Stamm ATCC13032/pCS2, als positive Kontrolle in Stamm DM58-1 und als negative Kontrolle in Stamm ATCC13032 gemessen. Die Stämme wurden in Standard I Bouillon, das mit 4 g/l Glucose, 10 µg/ml Kanamycin und 1 mM MgCl₂ supplementiert war, kultiviert. Kulturbedingungen, Zellernte, Zellaufschluß und Bestimmung der Aspartat-Kinase wurden, wie unter 1.2 beschrieben, durchgeführt. Die Effektoren L-Lys, L-Thr und AEC werden jeweils als Stammlösungen in 100 mM Tris/HCl Puffer mit einem pH von 7,5 zugegeben.
(§6) Die Aspartat-Kinase-Aktivität und die Hemmbarkeit der Enzymaktivität durch Mischungen von Lysin bzw. AEC und Threonin wurde in den konstruierten Klonen bestimmt. Anzucht, Aufschluß und Aktivitätsbestimmung wurden, wie oben beschrieben, durchgeführt. Außerdem wurde die Fahigkeit der verschiedenen Klone untersucht, L-Lysin auszuscheiden. Hierfür wurde ein Agarplatten-Diffusionstest mit einem L-Lysin-auxotrophen Indikationsstamm von C. glutamicum verwendet. Aus Tabelle 4 ist zu entnehmen, daß sämtliche AEC resistenten Stämme eine partiell deregulierte Aspartat-Kinase-Aktivität besitzen und in der Lage sind, L-Lysin auszuscheiden. Tabelle 3

[2] = biological target: Aspartat-Kinase (AK), C. glutamicum ATCC13032 (pCS26) (Corynebacterium glutamicum, UniProt P26512); assay: as above
Procedure: as §1, §2, §3, §4, §5, §6

[3] = biological target: Aspartat-Kinase (AK), C. glutamicum ATCC13032 (pCS233) (Corynebacterium glutamicum, UniProt P26512); assay: as above
Procedure: as §1, §2, §3, §4, §5, §6

[4] = biological target: Aspartat-Kinase (AK), C. glutamicum ATCC13032 (pCS23) (Corynebacterium glutamicum, UniProt P26512); assay: as above
Procedure: as §1, §2, §3, §4, §5, §6

[5] = biological target: Aspartat-Kinase (AK), C. glutamicum ATCC13032 (pCS2) (Corynebacterium glutamicum, UniProt P26512); assay: as above
Procedure: as §1, §2, §3, §4, §5, §6

[6] = biological target: Aspartat-Kinase (AK), C. glutamicum DM58-1 (pZ1) (Corynebacterium glutamicum, UniProt P26512); assay: as above
Procedure: as §1, §2, §3, §4, §5, §6

[7] = biological target: Aspartat-Kinase (AK) aus C. glutamicum DM58-1 (AEC resistente Mutante von ATCC13032) (Corynebacterium glutamicum, UniProt P26512); assay: Aspartate kinase test (hydroxamate), inhibition by effector combinations, dialysed crude extract
Procedure: as §1, §2, §3, §4
(§7) Tabelle 1 zeigt, das die bereits von K. Nakayama et al. (K. Nakayama et al. Agr. Biol. Chem. 30, 611 (1966)) angedeutete und von S.N. Kara-Murza et al. (S.N. Kara-Murza Prikladnaya Biokhimiya; Mikrobiologia 14, 345 (1978)) genauer untersuchte Hemmbarkeit des C. glutamicum Wildtyp-Enzyms durch uns reproduziert werden konnte. Dem gegen-übergestellt ist der deutlich differente Charakter des Enzyms der AEC resistenten Mutante DM58-1, deren Aspartat-Kinase nicht mehr konzertiert durch L-Lysin + L-Threonin hemmbar ist. Durch die am Enzym aus ATCC13032 Lysin-analog wirkenden Substanzen S-Aminoethyl-D,L-Cystein (AEC) wird das Enzym der Mutanten ebenfalls nur noch gering beeinflußt. Tabelle 1

[8] = biological target: T1, Aspartat-Kinase (AK) aus C. glutamicum ATCC13032 (Wildtyp-Enzym) (Corynebacterium glutamicum, UniProt P26512); assay: as above
T1 construct: Rohextrakten identisch gezogener; endogenous in cells; host or cells: C. glutamicum ATCC13032, dialysed crude extract
T1 sequence (P26512 1-421): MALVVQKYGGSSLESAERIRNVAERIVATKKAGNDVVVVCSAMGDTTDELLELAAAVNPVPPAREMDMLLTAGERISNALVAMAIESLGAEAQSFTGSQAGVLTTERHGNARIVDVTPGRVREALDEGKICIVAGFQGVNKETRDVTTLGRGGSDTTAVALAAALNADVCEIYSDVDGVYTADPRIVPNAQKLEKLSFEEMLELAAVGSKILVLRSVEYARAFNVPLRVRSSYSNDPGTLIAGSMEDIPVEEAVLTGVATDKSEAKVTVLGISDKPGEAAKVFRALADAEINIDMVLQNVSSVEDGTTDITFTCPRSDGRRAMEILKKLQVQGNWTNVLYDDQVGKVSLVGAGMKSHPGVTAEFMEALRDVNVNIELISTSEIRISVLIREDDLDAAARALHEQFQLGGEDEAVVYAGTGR
T1 sequence (P26512 1-172 isoform P26512-2): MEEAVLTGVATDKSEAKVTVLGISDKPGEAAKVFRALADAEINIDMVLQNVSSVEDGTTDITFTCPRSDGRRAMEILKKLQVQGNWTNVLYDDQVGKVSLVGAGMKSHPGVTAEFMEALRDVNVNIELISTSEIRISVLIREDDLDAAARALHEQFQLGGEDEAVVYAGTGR
Procedure: as §1, §2, §3, §4, §7

[9] = biological target: Aspartat-Kinase (AK), C. glutamicum ATCC13032 (pCS21) (Corynebacterium glutamicum, UniProt P26512); assay: Aspartate kinase test, residual activity with effector combinations
Procedure: as §1, §2, §3, §4, §5, §6

[10] = biological target: Aspartat-Kinase (AK), C. glutamicum ATCC13032 pCS22 (Corynebacterium glutamicum, UniProt P26512); assay: as above
Procedure: as §1, §2, §3, §4, §5, §6

In the case of `NCCSCC(N)C(=O)O` (racemic) [AEC, S-(Aminoethyl)-D,L-Cystein], the “AK Restaktivität (%) in Anwesenheit von 100mM AEC 10mM Thr” value ([1]; 100mM AEC + 10mM Thr) was 62%, the “AK Restaktivität (%) in Anwesenheit von 100mM AEC 10mM Thr” value ([2]; 100mM AEC + 10mM Thr) was 60% and the “AK Restaktivität (%) in Anwesenheit von 100mM AEC 10mM Thr” value ([3]; 100mM AEC + 10mM Thr) was 57%. For the same compound, the “AK Restaktivität (%) in Anwesenheit von 100mM AEC 10mM Thr” value ([4]; 100mM AEC + 10mM Thr) was 56%, the “AK Restaktivität (%) in Anwesenheit von 100mM AEC 10mM Thr” value ([5]; 100mM AEC + 10mM Thr) was 56% and the “AK Restaktivität (%) in Anwesenheit von 100mM AEC 10mM Thr” value ([6]; 100mM AEC + 10mM Thr) was 93%. It also gave an AK-Hemmung ([7]; 10 mM AEC + 1 mM L-Thr) of 0%, an AK-Hemmung ([7]; 10 mM AEC + 10 mM L-Thr) of 0% and an AK-Hemmung ([7]; 100 mM AEC + 10 mM L-Thr) of 7%. For the same compound, the inhibition at 10000 µM ([8]; 10 mM AEC + 1 mM L-Thr, read-out: AK-Hemmung) was 12%, the inhibition at 10000 µM ([8]; 10 mM AEC + 10 mM L-Thr, read-out: AK-Hemmung) was 41% and the inhibition at 100000 µM ([8]; 100 mM AEC + 10 mM L-Thr, read-out: AK-Hemmung) was 95%.
With `NCCCC[C@H](N)C(=O)O` [L-Lys, L-Lysin] the “AK Restaktivität (%) in Anwesenheit von 10mM Lys 1mM Thr” value ([1]; 10mM Lys + 1mM Thr) was 65%, the “AK Restaktivität (%) in Anwesenheit von 10mM Lys 10mM Thr” value ([1]; 10mM Lys + 10mM Thr) was 65% and the “AK Restaktivität (%) in Anwesenheit von 100mM Lys 10mM Thr” value ([1]; 100mM Lys + 10mM Thr) was 40%. The “AK Restaktivität (%) in Anwesenheit von 10mM Lys 1mM Thr” value ([9]; 10mM Lys + 1mM Thr) was 46%, the “AK Restaktivität (%) in Anwesenheit von 10mM Lys 10mM Thr” value ([9]; 10mM Lys + 10mM Thr) was 50% and the “AK Restaktivität (%) in Anwesenheit von 100mM Lys 10mM Thr” value ([9]; 100mM Lys + 10mM Thr) was 24%. The “AK Restaktivität (%) in Anwesenheit von 10mM Lys 1mM Thr” value ([2]; 10mM Lys + 1mM Thr) was 64%, the “AK Restaktivität (%) in Anwesenheit von 10mM Lys 10mM Thr” value ([2]; 10mM Lys + 10mM Thr) was 63% and the “AK Restaktivität (%) in Anwesenheit von 100mM Lys 10mM Thr” value ([2]; 100mM Lys + 10mM Thr) was 39%. The “AK Restaktivität (%) in Anwesenheit von 10mM Lys 1mM Thr” value ([10]; 10mM Lys + 1mM Thr) was 40%, the “AK Restaktivität (%) in Anwesenheit von 10mM Lys 10mM Thr” value ([10]; 10mM Lys + 10mM Thr) was 41% and the “AK Restaktivität (%) in Anwesenheit von 100mM Lys 10mM Thr” value ([10]; 100mM Lys + 10mM Thr) was 22%. The “AK Restaktivität (%) in Anwesenheit von 10mM Lys 1mM Thr” value ([3]; 10mM Lys + 1mM Thr) was 56%, the “AK Restaktivität (%) in Anwesenheit von 10mM Lys 10mM Thr” value ([3]; 10mM Lys + 10mM Thr) was 62% and the “AK Restaktivität (%) in Anwesenheit von 100mM Lys 10mM Thr” value ([3]; 100mM Lys + 10mM Thr) was 36%. The “AK Restaktivität (%) in Anwesenheit von 10mM Lys 1mM Thr” value ([4]; 10mM Lys + 1mM Thr) was 51%, the “AK Restaktivität (%) in Anwesenheit von 10mM Lys 10mM Thr” value ([4]; 10mM Lys + 10mM Thr) was 57% and the “AK Restaktivität (%) in Anwesenheit von 100mM Lys 10mM Thr” value ([4]; 100mM Lys + 10mM Thr) was 30%. For the same compound, the “AK Restaktivität (%) in Anwesenheit von 10mM Lys 1mM Thr” value ([5]; 10mM Lys + 1mM Thr) was 55%, the “AK Restaktivität (%) in Anwesenheit von 10mM Lys 10mM Thr” value ([5]; 10mM Lys + 10mM Thr) was 55% and the “AK Restaktivität (%) in Anwesenheit von 100mM Lys 10mM Thr” value ([5]; 100mM Lys + 10mM Thr) was 28%. The “AK Restaktivität (%) in Anwesenheit von 10mM Lys 1mM Thr” value ([6]; 10mM Lys + 1mM Thr) was 83%, the “AK Restaktivität (%) in Anwesenheit von 10mM Lys 10mM Thr” value ([6]; 10mM Lys + 10mM Thr) was 100% and the “AK Restaktivität (%) in Anwesenheit von 100mM Lys 10mM Thr” value ([6]; 100mM Lys + 10mM Thr) was 79%. The AK-Hemmung ([7]; 10 mM L-Lys + 1 mM (second inhibitor not named, L-Thr)) was 12%, the AK-Hemmung ([7]; 10 mM L-Lys + 10 mM L-Thr) was 2% and the AK-Hemmung ([7]; 100 mM L-Lys + 10 mM L-Thr) was 21%. For the same compound, the inhibition at 10000 µM ([8]; read-out: AK-Hemmung, 10 mM L-Lys + 1 mM (second inhibitor not named, L-Thr)) was 89%, the inhibition at 10000 µM ([8]; read-out: AK-Hemmung, 10 mM L-Lys + 10 mM L-Thr) was 95% and the inhibition at 100000 µM ([8]; read-out: AK-Hemmung, 100 mM L-Lys + 10 mM L-Thr) was 99%.
